“And” between values parts separate entries of the source, which are not always exact repeats. Equal entries are not always repeated. Inconclusive results and toxic doses are left out. Rule as the data show it: active = T/C of 150% or more; inactive = T/C below 125%.
System: L1210 leukemia ip in BDF1 mice, survival T/C
Assay: NCI In Vivo Anticancer Drug Screen. Data for tumor model L1210 Leukemia (intraperitoneal) in B6D2F1 (BDF1) mice
Conditions: endpoint: mean survival time, higher = longer survival
Summary of the method: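 Transplantable tumor model; survival measured in treated vs vehicle control mice. Value = treated/control.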

[1] = dose: 100.0 mg/kg/injection, schedule: Q01DX001 (ip), vehicle: saline
[2] = dose: 100.0 mg/kg/injection, schedule: Q04DX002 (ip), vehicle: Klucel (hydroxypropylcellulose) (HPC)
[3] = dose: 200.0 mg/kg/injection, schedule: Q04DX002 (ip), vehicle: Klucel (hydroxypropylcellulose) (HPC)
[4] = dose: 400.0 mg/kg/injection, schedule: Q04DX002 (ip), vehicle: Klucel (hydroxypropylcellulose) (HPC)
[5] = dose: 100.0 mg/kg/injection, schedule: Q01DX009 (ip), vehicle: Klucel (hydroxypropylcellulose) (HPC)
[6] = dose: 200.0 mg/kg/injection, schedule: Q01DX009 (ip), vehicle: Klucel (hydroxypropylcellulose) (HPC)

Measured: T/C

O=C(C(Br)c1ccccc1)C(Br)c1ccccc1 (centres undefined)
inactive: dose: 6.25 mg/kg/injection, schedule: Q01DX009 (ip), vehicle: saline with Tween-80 104 % of control | dose: 12.5 mg/kg/injection, schedule: Q01DX009 (ip), vehicle: saline with Tween-80 98 % of control and 107 % of control | dose: 12.5 mg/kg/injection, schedule: Q04DX003 (ip), vehicle: saline with Tween-80 96 % of control | dose: 25.0 mg/kg/injection, schedule: Q01DX009 (ip), vehicle: saline with Tween-80 100 % of control and 110 % of control | dose: 25.0 mg/kg/injection, schedule: Q04DX003 (ip), vehicle: saline with Tween-80 90 % of control | dose: 50.0 mg/kg/injection, schedule: Q01DX009 (ip), vehicle: saline with Tween-80 102 % of control | dose: 50.0 mg/kg/injection, schedule: Q04DX003 (ip), vehicle: saline with Tween-80 101 % of control

COc1cccc(OC#N)c1OC
inactive: dose: 12.5 mg/kg/injection, schedule: Q01DX001 (ip), vehicle: Klucel (hydroxypropylcellulose) (HPC) 93 % of control | dose: 12.5 mg/kg/injection, schedule: Q01DX009 (ip), vehicle: Klucel (hydroxypropylcellulose) (HPC) 95 % of control | dose: 12.5 mg/kg/injection, schedule: Q04DX003 (ip), vehicle: Klucel (hydroxypropylcellulose) (HPC) 96 % of control | dose: 25.0 mg/kg/injection, schedule: Q01DX001 (ip), vehicle: Klucel (hydroxypropylcellulose) (HPC) 98 % of control | dose: 25.0 mg/kg/injection, schedule: Q01DX009 (ip), vehicle: Klucel (hydroxypropylcellulose) (HPC) 97 % of control | dose: 25.0 mg/kg/injection, schedule: Q04DX003 (ip), vehicle: Klucel (hydroxypropylcellulose) (HPC) 104 % of control | dose: 50.0 mg/kg/injection, schedule: Q01DX001 (ip), vehicle: Klucel (hydroxypropylcellulose) (HPC) 93 % of control | dose: 50.0 mg/kg/injection, schedule: Q04DX003 (ip), vehicle: Klucel (hydroxypropylcellulose) (HPC) 94 % of control

COC(=O)C1C(=O)CCC2CN3CCc4c([nH]c5ccccc45)C3CC21 (centres undefined)
inactive: dose: 12.5 mg/kg/injection, schedule: Q04DX002 (ip), vehicle: saline with Tween-80 94 % of control | dose: 25.0 mg/kg/injection, schedule: Q04DX002 (ip), vehicle: saline with Tween-80 100 % of control | dose: 50.0 mg/kg/injection, schedule: Q04DX002 (ip), vehicle: saline with Tween-80 90 % of control

CC/C(C)=N\O
inactive: dose: 50.0 mg/kg/injection, schedule: Q01DX001 (ip), vehicle: saline 112 % of control | [1] 101 % of control | dose: 200.0 mg/kg/injection, schedule: Q01DX001 (ip), vehicle: saline 93 % of control | dose: 400.0 mg/kg/injection, schedule: Q01DX001 (ip), vehicle: saline 95 % of control

Cc1c(C(C)(C)C)cc(CC(C)C)c(O)c1-c1c(C)c(CC(C)C)cc(C(C)(C)C)c1O
inactive: [2] 98 % of control | [3] 91 % of control | [4] 94 % of control

O=C(NCCCCCCNC(=O)N(Cc1ccccc1)Cc1ccccc1)N(Cc1ccccc1)Cc1ccccc1
inactive: dose: 100.0 mg/kg/injection, schedule: Q04DX002 (ip), vehicle: saline 105 % of control | dose: 200.0 mg/kg/injection, schedule: Q04DX002 (ip), vehicle: saline 97 % of control | dose: 400.0 mg/kg/injection, schedule: Q04DX002 (ip), vehicle: saline 108 % of control

CC1(C)CC(OP(=O)(OC2CC(C)(C)N(O)C(C)(C)C2)c2ccccc2)CC(C)(C)N1O
inactive: dose: 100.0 mg/kg/injection, schedule: Q01DX001 (ip), vehicle: water 91 % of control | dose: 200.0 mg/kg/injection, schedule: Q01DX001 (ip), vehicle: water 106 % of control | dose: 400.0 mg/kg/injection, schedule: Q01DX001 (ip), vehicle: water 89 % of control

CN(C)c1ccc(C(=C(C#N)C#N)c2ccc(N(C)C)cc2)cc1
inactive: [5] 98 % of control | dose: 100.0 mg/kg/injection, schedule: Q04DX003 (ip), vehicle: Klucel (hydroxypropylcellulose) (HPC) 95 % of control | [6] 98 % of control | dose: 200.0 mg/kg/injection, schedule: Q04DX003 (ip), vehicle: Klucel (hydroxypropylcellulose) (HPC) 101 % of control | dose: 400.0 mg/kg/injection, schedule: Q01DX009 (ip), vehicle: Klucel (hydroxypropylcellulose) (HPC) 102 % of control | dose: 400.0 mg/kg/injection, schedule: Q04DX003 (ip), vehicle: Klucel (hydroxypropylcellulose) (HPC) 101 % of control

COC(=O)Nc1cccc(OC(=O)NC2CCCCC2)c1
inactive: dose: 100.0 mg/kg/injection, schedule: Q04DX003 (ip), vehicle: saline with Tween-80 100 % of control | dose: 200.0 mg/kg/injection, schedule: Q04DX003 (ip), vehicle: saline with Tween-80 100 % of control | dose: 400.0 mg/kg/injection, schedule: Q04DX003 (ip), vehicle: saline with Tween-80 93 % of control

COc1ccc(CNC(C)(C)CO)c(OC)c1
inactive: dose: 75.0 mg/kg/injection, schedule: Q01DX001 (ip), vehicle: saline 101 % of control | dose: 150.0 mg/kg/injection, schedule: Q01DX001 (ip), vehicle: saline 102 % of control | dose: 300.0 mg/kg/injection, schedule: Q01DX001 (ip), vehicle: saline 98 % of control

CN(Cc1ccccc1)C(=O)NC(C)(C)C
inactive: [2] 121 % of control | [3] 102 % of control | [4] 105 % of control

Oc1ccccc1/C=N/c1nc2ccc(Cl)cc2s1.Oc1ccccc1/C=N/c1nc2ccc(Cl)cc2s1.[Zn]
inactive: [1] 90 % of control

Cc1ccc(S(=O)(=O)N/N=C/Cc2ccccc2)cc1
inactive: dose: 100.0 mg/kg/injection, schedule: Q04DX002 (ip), vehicle: gum acacia 100 % of control | dose: 200.0 mg/kg/injection, schedule: Q04DX002 (ip), vehicle: gum acacia 100 % of control | dose: 400.0 mg/kg/injection, schedule: Q04DX002 (ip), vehicle: gum acacia 100 % of control

C=C(C)COc1ccc(Nc2ccccc2)cc1
inactive: dose: 100.0 mg/kg/injection, schedule: Q01DX001 (ip), vehicle: Klucel (hydroxypropylcellulose) (HPC) 92 % of control | dose: 200.0 mg/kg/injection, schedule: Q01DX001 (ip), vehicle: Klucel (hydroxypropylcellulose) (HPC) 95 % of control | dose: 400.0 mg/kg/injection, schedule: Q01DX001 (ip), vehicle: Klucel (hydroxypropylcellulose) (HPC) 89 % of control

O=C(O)c1c(Cl)c(Cl)c(Cl)c(Cl)c1C(=O)O.O=C(O)c1c(Cl)c(Cl)c(Cl)c(Cl)c1C(=O)O.[Pt]
inactive: dose: 100.0 mg/kg/injection, schedule: Q04DX003 (ip), vehicle: saline sonified 105 % of control

CCOC(=O)CC(C(C)=O)P(=O)(OCC)OCC (centres undefined)
inactive: dose: 50.0 mg/kg/injection, schedule: Q01DX009 (ip), vehicle: saline + alcohol 96 % of control | dose: 100.0 mg/kg/injection, schedule: Q01DX009 (ip), vehicle: saline + alcohol 96 % of control | dose: 200.0 mg/kg/injection, schedule: Q01DX009 (ip), vehicle: saline + alcohol 92 % of control

CC1=NN(c2ccccc2)C(=O)/C1=C\c1ccccc1
inactive: [5] 97 % of control | [6] 95 % of control
